# Measurements published in patent publication US20240238299A1, “USE OF PYRROLOPYRIMIDINE COMPOUND” (GUANGZHOU JOYO PHARMATECH CO., LTD, priority 2021, published 2024).
# Test system: MOG35-55-induced EAE mouse spinal cord
# Experiment: EAE mouse model, spinal cord H&E and LFB pathological scoring
# Assay type: in vivo, C57BL/6 mice
# Conditions: day 28
# Protocol: For each group consisting of 5 mice, euthanasia was performed followed by cardiac perfusion with saline. Subsequently, an equal volume of 10% formalin was perfused. Spinal cord tissues from the mice were collected, soaked in […], and then sectioned. Hematoxylin & Eosin (H&E) staining and Luxol Fast Blue (LFB) staining were performed, along with pathological scoring.
# At the end of the experiment, the spinal cords of mice were collected, with 2 in the normal control group and 5 in each of the remaining groups. The spinal cords were fixed in formalin, followed by paraffin embedding and sectioning. Two sections were taken from each mouse and subjected to H&E and FLB staining for pathological observation. Scoring was done for cell infiltration, lesion areas, and demyelination. […] Specifically, after H&E staining of the mouse spinal cord, cell infiltration (A) and lesion area (B) in the spinal cord sections were counted. After LFB staining, the degree of demyelination (C) in the spinal cord sections was scored. Data were presented as mean±standard error of the mean (mean±SEM). *p<0.05, **p<0.01, ***p<0.001, ****p<0.0001, vs. vehicle control group (Vehicle), one-way ANOVA.
smiles,measurement,setting,value
CN(c1ncnc2[nH]ccc12)[C@@H]1CCc2cc(C#N)nn2C1 [Compound I],"cell infiltration, lesion area and demyelination compared with Fingolimod",10 mg/kg BID,significantly better therapeutic effect than the positive drug Fingolimod group
same,damage to the spinal cord caused by EAE modeling,"all doses (3, 10, 20 mg/kg BID, 20 mg/kg QD)",significantly inhibited the damage to the spinal cord
